Test results from patent US8362259B2, “Process for the preparation of esomeprazole magnesium in a stable form” (Lek Pharmaceuticals, D.D., priority 2008, dated 2013).

What was measured:
Format in all cases: physicochemical
[1] = stress stability testing, HPLC related substances and degradation products; set-up: HPLC related substance RRt 0.10 / HPLC related substance RRt 0.11 / HPLC related substance RRt 0.16 / HPLC related substance RRt 0.20 / HPLC related substance RRt 1.45 / HPLC related substance RRt 1.59 / HPLC related substance RRt 1.61 / HPLC related substance RRt 2.20 / HPLC related substance RRt 2.25: unit not given here
Protocol: Illustratively, it was tested under regular pharmaceutical tests such as stress condition test (Table 1) and was compared with chemical stability of the starting amorphous esomeprazole magnesium or esomeprazole Mg dihydrate form B (Table 2).

[2] = removal of residual solvents by drying (Comparative Example 2); conditions: drying at high temperatures
Source text: Further removing of residual solvents was studied on amorphous esomeprazole magnesium by drying.

[3] = physical (polymorphic) stability under stress conditions; conditions: 14 days 40° C./75% relative humidity, 7 days 60° C.
Protocol: In addition, also physical stability of esomeprazole magnesium dihydrate form A obtained according to the present invention was tested.

[4] = 40° C./75 RH, open dish, 14 days, open vial

COc1ccc2[n-]c([S@@+]([O-])Cc3ncc(C)c(OC)c3C)nc2c1.COc1ccc2[n-]c([S@@+]([O-])Cc3ncc(C)c(OC)c3C)nc2c1.O.O.[Mg+2]
chemical stability compared among the three forms of esomeprazole magnesium ([1]; stress stability testing, all three forms compared): chemically the most stable form

magnesium bis(5-methoxy-2-[(S)-[(4-methoxy-3,5-dimethyl-2-pyridinyl)methyl]sulfinyl]-1H-benzimidazole) [Amorphous esomeprazole magnesium]
chemical stability on drying to remove residual solvents [2]: accompanied by chemical decomposition | HPLC - Related substances and degradation products: Sum [1, 4]: 0.43 | HPLC related substance OMP-benzimidazole (Ph. Eur. Imp. A) [1, 4]: 0.04 | HPLC related substance RRt 0.10 [1, 4]: 0.04 | HPLC related substance RRt 0.11 [1, 4]: 0.09 | HPLC related substance RRt 0.16 [1, 4]: 0.07 | HPLC related substance RRt 0.20 [1, 4]: 0.04 | HPLC related substance RRt 1.45 [1, 4]: 0.06 | HPLC related substance RRt 2.20 [1, 4]: 0.09 | HPLC - Related substances and degradation products: Sum ([1]; 60° C., 7 days, vial): 0.79 | HPLC related substance OMP-N-oxide (Ph. Eur. Imp. E) ([1]; 60° C., 7 days, vial): 0.03 | HPLC related substance OMP-N-sufone (Ph. Eur. Imp. D) ([1]; 60° C., 7 days, vial): 0.03 | HPLC related substance OMP-benzimidazole (Ph. Eur. Imp. A) ([1]; 60° C., 7 days, vial): 0.06 | HPLC related substance RRt 0.11 ([1]; 60° C., 7 days, vial): 0.12 | HPLC related substance RRt 0.16 ([1]; 60° C., 7 days, vial): 0.18 | HPLC related substance RRt 0.20 ([1]; 60° C., 7 days, vial): 0.06 | HPLC related substance RRt 1.45 ([1]; 60° C., 7 days, vial): 0.15 | HPLC related substance RRt 2.20 ([1]; 60° C., 7 days, vial): 0.07 | HPLC related substance RRt 2.25 ([1]; 60° C., 7 days, vial): 0.09 | HPLC - Related substances and degradation products: Sum ([1]; Initial analysis): 0.10 | HPLC related substance RRt 0.16 ([1]; Initial analysis): 0.06 | HPLC related substance RRt 1.45 ([1]; Initial analysis): 0.04

magnesium bis(5-methoxy-2-[(S)-[(4-methoxy-3,5-dimethyl-2-pyridinyl)methyl]sulfinyl]-1H-benzimidazole) [Esomeprazole magnesium dihydrate form A]
physical stability of the polymorphic form [3]: stable | Chromatographic purity [1, 4]: 99.85 | HPLC - Related substances and degradation products: Sum [1, 4]: ≦0.05 | Chromatographic purity ([1]; 60° C., 7 days, vial): 99.82 | HPLC - Related substances and degradation products: Sum ([1]; 60° C., 7 days, vial): ≦0.05 | Chromatographic purity ([1]; Initial analysis): 99.85

magnesium bis(5-methoxy-2-[(S)-[(4-methoxy-3,5-dimethyl-2-pyridinyl)methyl]sulfinyl]-1H-benzimidazole) [Esomeprazole magnesium dihydrate form B]
HPLC - Related substances and degradation products: Sum [1, 4]: 0.14 | HPLC related substance RRt 1.59 [1, 4]: 0.06 | HPLC related substance RRt 1.61 [1, 4]: 0.06 | HPLC - Related substances and degradation products: Sum ([1]; 60° C., 7 days, vial): 0.07 | HPLC related substance Omeprazole-N-methyl ([1]; 60° C., 7 days, vial): 0.07 | HPLC - Related substances and degradation products: Sum ([1]; Initial analysis): <0.05
